Data from publication PMC4414177, “A novel orally active water-soluble inhibitor of human glutathione transferase exerts a potent and selective antitumor activity against human melanoma xenografts” (Oncotarget, 2015).

Columns and labels:
[1] = system: IST-MEL-1; assay: Cell growth inhibition, SRB assay; format: cell-based; details: Homo sapiens, IST-MEL-1, 48 h
Method: (§1) The IC50 values for each compound were then evaluated by the SRB assay.

[2] = system: MALME-3M; assay: Cell growth inhibition, SRB assay; format: cell-based; details: Homo sapiens, 48 h
Method: as §1

[3] = system: SK23-MEL; assay: Cell growth inhibition, SRB assay; format: cell-based; details: Homo sapiens, 48 h
Method: as §1

[4] = system: A375; assay: Cell growth inhibition, SRB assay; format: cell-based; details: Homo sapiens, A-375, A375, 48 h
Method: as §1

[5] = system: G-361; assay: Cell growth inhibition, SRB assay; format: cell-based; details: Homo sapiens, G-361, 48 h
Method: as §1

[6] = system: five cultured human melanoma cell lines; assay: Cell growth inhibition, SRB assay, whole panel; format: cell-based; details: range over A375, G-361, MALME-3M, IST-MEL-1, SK23-MEL
Method: as §1

[7] = target: T1, GSTM2-2 (Homo sapiens, UniProt P28161); assay: Inhibition of GSTM2-2 conjugation activity; format: biochemical; details: GSTM2-2 5 nM
T1 construct: made in house; host or cells: Escherichia coli
T1 sequence (P28161 1-218): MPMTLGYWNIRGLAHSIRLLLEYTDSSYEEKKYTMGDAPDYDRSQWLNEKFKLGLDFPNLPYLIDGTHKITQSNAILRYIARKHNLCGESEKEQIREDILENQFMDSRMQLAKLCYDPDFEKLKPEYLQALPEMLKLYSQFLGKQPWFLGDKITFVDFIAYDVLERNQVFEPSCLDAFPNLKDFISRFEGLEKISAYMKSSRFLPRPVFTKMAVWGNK
Method: Human GSTM2-2, GSTP1-1, JNK1a2 and TRAF2 were expressed in Escherichia coli and purified as previously described; protein concentration was determined using the Lowry colorimetric assay. Unless specified otherwise, all chemicals were purchased from Sigma-Aldrich S.r.l. (Milan, Italy).
GST activity was determined spectrophotometrically at 340 nm (ε = 9,600 M^−1 cm^−1), as previously reported. Inhibition experiments were performed by measuring GSTP1-1 (20 nM) or GSTM2-2 (5 nM) activities in the presence of various amounts of the selected NBD derivative (from 0.1 to 20 μM with GSTP1-1, and from 0.005 and 1 μM with GSTM2-2). Fifty percent inhibitory concentration (IC50) values were calculated by fitting the data to Equation 1, where ν is the percentage of the saturated binding sites; [P]t is the total GST concentration and [L]t is the total inhibitor concentration, assuming a 1:1 interaction stoichiometry between the inhibitor and one GST subunit, as well as that the binding sites are equal and independent.

[8] = system: A375 tumor xenografts; assay: Immunohistochemical analysis of A375 tumor xenografts; format: in vivo, mice
Source text: (§2) At sacrifice, tumors were removed, formalin-fixed and paraffin embedded. All internal organs were fixed and paraffin embedded for the morphological study to evaluate drug effects in normal tissues. Three μm-thick sections were cut and stained with haematoxylin and eosin (H&E). Two observers blindly classified the tissues for necrotic areas, evaluated as percent of total area, mitosis number in 10 high power field randomly selected away from the ischemic necrosis.
Briefly, 3-μm-thick sections were pre-treated with EDTA citrate pH 7.8, for 30 min, at 95°C and then incubated respectively with rabbit monoclonal anti-Phospho-SAPK/JNK (1:100, 81E11, Cell Signaling, Danvers Massachusetts, USA) and rabbit polyclonal anti-Caspase3, for 60 min (1:100, PA5-16335, ThermoFisher Scientific, Walthman, MA, USA). Washing were performed with PBS 4% + Tween20, pH 7.6, by UCS diagnostic.

[9] = system: A375 human melanoma; assay: A375 fragment xenograft model, antitumor efficacy; format: in vivo, mice; details: MC3181 i.v. 8mg/kg/d q1dx5 three weeks
Method: With regard to the in vivo fragment tumor model, A375 cells were injected (1×10^7) subcutaneously (s.c.) into the right flank of an athymic Nude-Foxn1nu female mouse, and the established primary tumor was then removed and cut into fragments (2–3 mm diameter) and implanted s.c. into recipient mice. Animals were randomly divided in groups of 7 mice and treatment was initiated when a tumor volume of 0.12 ± 0.01 cm^3 (mean ± SEM) was reached.
The reference drug temozolomide, dissolved in DMSO/PBS 1:1 to a final concentration of 10 mg/ml, was administered i.p. q1dx5 at a dose of 100mg/kg/day.
Primary tumor growth was determined for all animals by caliper measurement (minor and major axis length), three times per week, until they were sacrificed. Primary tumor volume was determined using the following equation: V (cm^3)=(α^2×β)/2 (Eq. 3)
The efficacy of the treatment was also analyzed by calculation of the percentage of Increase in Life Span (% ILS), since this analysis gives an evidence of clinical potency. Survival endpoint for each animal was fixed at the day when tumor volume reached 1.0 cm^3 (A375) or 0.4 cm^3 (SK23-MEL and G-361), and data were used to plot the relative Kaplan-Meier curves. Treatment efficacy was then evaluated by comparing the Median Survival Time (MST) of treated group with the MST of control group, and expressed as percentage of ILS: % ILS=[100×(MSTtreated group)/(MSTcontrol group)]−100 (Eq. 4)
Treatment was considered effective when % ILS > 20%.

[10] = system: SK23-MEL cells; assay: Caspase-3 activity in cell lysates; format: cell-based, human; details: 7 μM
Method: (§3) Apoptosis was confirmed by measuring caspase-3 activity, at 25°C, in total cell lysates, using the model fluorescent peptide substrate N-Acetyl-Asp-Glu-Val-Asp-7-amido-4-trifluoromethylcoumarin (Ac-DEVD-AFC). […] Caspase activity was expressed as change in fluorescence per min, per 10^6 cells.

[11] = system: A375 cells; assay: Caspase-3 activity in cell lysates; format: cell-based, human; details: A375, 10 μM
Method: as §3

[12] = system: SK23-MEL tumors; assay: Histological analysis of SK23-MEL tumors; format: in vivo, mice; details: SK23-MEL xenografts, MC3181-treated
Source text: as §2

[13] = system: SK23-MEL cells; assay: Cell morphology (phase-contrast microscopy); format: cell-based, human; details: 7 μM, 48 hrs
[14] = system: A375 cells; assay: JNK phospho-activation (Western blot); format: cell-based, human; details: A375, 10 μM
Method: The cell pellet obtained at each time point was lysed as previously reported and the protein concentration was determined using the Lowry colorimetric assay. Proteins (40 μg) were loaded on 12% SDS-polyacrylamide gel and transferred onto a PVDF membrane (GE Healthcare, Chalfont St. Giles, UK). Anti-P-JNK (Thr183 Tyr185) (Cell Signaling, Beverly, MA, USA), anti-JNK (Cell Signaling) and anti-β actin were used as primary antibodies. […] The ImageJ software was used to analyze the band intensities.

With `O=[N+]([O-])c1ccc(SCCOCCOCCO)c2nonc12` [MC3181, 2-(2-(2-((7-nitrobenzo[c][1,2,5]oxadiazol-4-yl)thio)ethoxy)ethoxy)ethanol] the IC50 [1] was 0.92 ± 0.07 µM, the IC50 [2] was 2.42 ± 0.16 µM and the IC50 [3] was 1.79 ± 0.05 µM. For the same compound, the IC50 [4] was 2.31 ± 0.04 µM, the IC50 [5] was 0.78 ± 0.04 µM and the IC50 [6] was 0.8 to 2.4 µM. The IC50 [7] was 0.081 ± 0.013 µM, the “higher apoptosis compared to untreated controls” value ([8]; A375 tumor xenografts, data not shown) was “about 20%” and the “JNK phosphorylation and caspase-3 in tumors” value ([8]; A375 xenografts, 8 mg/kg, P-JNK 6 hrs after treatment, caspase-3 at end of treatment) was “significant increase of JNK phosphorylation and caspase-3 activity”. For the same compound, the “%ILS” value ([9]; TMZ i.p. 100 mg/kg/d q1dx5) was 53%, the tumor growth ([9]; TMZ i.p. 100 mg/kg/d q1dx5, from day 13 onward, P < 0.05) was “significantly delayed tumor growth” and the caspase-3 activation [10] was “negligible increase of proteolitic activity”. The caspase-3 activation [11] was “strong caspase-3 activity”, the tumor histology [12] was “melanin production” and the cell morphology [13] was “clear morphological changes”. The JNK phosphorylation [14] was “sustained increase in JNK phosphorylation” and the “start of the increase in JNK phosphorylation after addition of the drug” value [14] was no more than 1 h.
